Results on 16 compounds are retold here after ChEMBL document CHEMBL1909046, “DrugMatrix in vitro pharmacology data”.

Data set [1] is described as follows: DRUGMATRIX: Phosphodiesterase PDE4 enzyme inhibition (substrate: [3H]cAMP + cAMP). The conditions noted are these: u-937; Not Active = under 50% inhibition at 10 µM.
The target in data set [2] is T1, Cytochrome P450 1A2 (Homo sapiens, UniProt P05177). Note: in other assays of this panel Not Active means under 50% inhibition at 10 µM.
T1 sequence (P05177 whole entry): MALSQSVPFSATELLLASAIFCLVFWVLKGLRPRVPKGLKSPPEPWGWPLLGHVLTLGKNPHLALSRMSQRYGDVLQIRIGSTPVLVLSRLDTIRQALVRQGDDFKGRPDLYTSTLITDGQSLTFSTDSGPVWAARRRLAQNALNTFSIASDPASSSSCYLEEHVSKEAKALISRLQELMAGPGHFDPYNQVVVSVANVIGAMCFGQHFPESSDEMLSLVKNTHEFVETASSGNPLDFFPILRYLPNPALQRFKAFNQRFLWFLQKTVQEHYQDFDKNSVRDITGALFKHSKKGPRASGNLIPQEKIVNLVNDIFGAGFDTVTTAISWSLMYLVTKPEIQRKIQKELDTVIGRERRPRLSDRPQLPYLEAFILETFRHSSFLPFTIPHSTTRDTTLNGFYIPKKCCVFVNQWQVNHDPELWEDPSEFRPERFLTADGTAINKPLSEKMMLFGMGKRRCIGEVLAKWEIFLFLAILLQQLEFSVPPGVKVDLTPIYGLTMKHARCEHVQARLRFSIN
The conditions noted are these: bti-tn-5b1-4.

In data set [3] the target is Prostaglandin G/H synthase 1 (Homo sapiens, UniProt P23219). Kind of data set: biochemical. The conditions noted are these: platelet. Type of data set: tissue-based, Platelet.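 Note: inhibition of COX-1 enzyme activity, with arachidonic acid supplied as substrate; in other assays of this panel Not Active means under 50% inhibition at 10 µM.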
Data set [4] is described as follows: DRUGMATRIX: Phorbol Ester radioligand binding (ligand: [3H] PDBu). Type of data set: cell membranes, Mus musculus, ICR, Brain, Membrane. As to conditions: Not Active = under 50% inhibition at 10 µM.
A short description of data set [5]: DRUGMATRIX: Potassium Channel [KATP] radioligand binding (ligand: [3H] Glyburide). Type of data set: cell membranes, Membrane. As to conditions: hit-t15, Not Active = under 50% inhibition at 10 µM.
The target of data set [6] is T2, D(4) dopamine receptor (Homo sapiens, UniProt P21917).
T2 sequence (P21917 whole entry): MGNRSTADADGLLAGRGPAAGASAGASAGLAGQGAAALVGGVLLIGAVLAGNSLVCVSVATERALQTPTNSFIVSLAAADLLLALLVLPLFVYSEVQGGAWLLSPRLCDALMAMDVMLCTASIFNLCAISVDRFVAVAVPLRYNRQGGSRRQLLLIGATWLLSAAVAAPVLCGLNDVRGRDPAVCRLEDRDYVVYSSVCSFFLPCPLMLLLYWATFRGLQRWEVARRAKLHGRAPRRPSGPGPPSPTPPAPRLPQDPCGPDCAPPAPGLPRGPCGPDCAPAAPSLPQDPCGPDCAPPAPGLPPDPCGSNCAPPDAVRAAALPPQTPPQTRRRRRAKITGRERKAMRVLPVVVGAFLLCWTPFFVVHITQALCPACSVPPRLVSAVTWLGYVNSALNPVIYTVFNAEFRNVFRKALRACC
In words: DRUGMATRIX: Dopamine D4.2 radioligand binding (ligand: [3H] Spiperone). Type of data set: cell membranes, CHO-K1, Membrane. The conditions noted are these: cho-k1; Not Active = under 50% inhibition at 10 µM.

In data set [7] the target is C-C chemokine receptor type 2 (Homo sapiens, UniProt P41597). Type of data set: cell membranes, Membrane. As to conditions: cho-k1. Note: in other assays of this panel Not Active means under 50% inhibition at 10 µM.
Sequence of C-C chemokine receptor type 2 (P41597 whole entry): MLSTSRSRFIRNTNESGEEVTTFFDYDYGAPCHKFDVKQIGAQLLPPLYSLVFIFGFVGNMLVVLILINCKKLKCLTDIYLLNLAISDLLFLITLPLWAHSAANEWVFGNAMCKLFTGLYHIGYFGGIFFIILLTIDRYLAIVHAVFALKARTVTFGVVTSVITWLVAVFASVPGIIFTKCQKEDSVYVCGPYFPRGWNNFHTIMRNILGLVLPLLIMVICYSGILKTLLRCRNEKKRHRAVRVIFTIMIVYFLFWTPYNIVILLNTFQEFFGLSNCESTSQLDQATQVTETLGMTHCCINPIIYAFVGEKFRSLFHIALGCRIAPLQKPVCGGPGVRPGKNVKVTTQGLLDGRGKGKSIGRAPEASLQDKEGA

Sequence of Prostaglandin G/H synthase 1 (P23219 whole entry): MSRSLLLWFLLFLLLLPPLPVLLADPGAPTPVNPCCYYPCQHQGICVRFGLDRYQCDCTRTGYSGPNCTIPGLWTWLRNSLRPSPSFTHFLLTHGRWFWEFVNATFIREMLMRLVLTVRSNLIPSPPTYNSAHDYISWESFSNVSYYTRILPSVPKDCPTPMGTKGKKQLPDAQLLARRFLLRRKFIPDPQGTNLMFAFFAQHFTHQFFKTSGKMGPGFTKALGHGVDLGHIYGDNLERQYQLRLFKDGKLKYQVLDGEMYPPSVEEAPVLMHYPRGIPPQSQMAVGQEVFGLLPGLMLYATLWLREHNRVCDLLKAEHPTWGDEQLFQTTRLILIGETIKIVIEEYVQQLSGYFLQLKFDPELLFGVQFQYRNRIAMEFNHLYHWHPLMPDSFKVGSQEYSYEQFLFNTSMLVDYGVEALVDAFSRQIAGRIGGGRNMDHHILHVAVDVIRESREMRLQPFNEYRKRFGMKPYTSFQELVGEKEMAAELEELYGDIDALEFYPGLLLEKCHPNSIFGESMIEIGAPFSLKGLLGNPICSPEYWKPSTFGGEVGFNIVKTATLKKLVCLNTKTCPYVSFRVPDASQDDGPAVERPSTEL

One may read the IC50 as the point on the concentration scale where inhibition reaches its midpoint. By Ki is commonly meant the dissociation constant of the complex between target and ligand, obtained from inhibition or displacement. Consider `CCC1=C(C)CN(C(=O)NCCc2ccc(S(=O)(=O)NC(=O)N[C@H]3CC[C@H](C)CC3)cc2)C1=O` [GLIMEPIRIDE], for which the IC50 entry was “Not Active” in data set [1]; “Not Active” in data set [2]; “Not Active” in data set [3]; “Not Active” in data set [4]; 100 nM in data set [5] (read-out: IC50); “Not Active” in data set [6]. Also, the IC50 entry in data set [7] was “Not Active”. The Ki entry in data set [1] was “Not Active”; in data set [2], “Not Active”; in data set [4] it was “Not Active”; in data set [5] (read-out: Ki), 11 nM.
Consider `Nc1cc(-c2ccncc2)c[nH]c1=O` [INAMRINONE], for which the half-maximal inhibitory concentration (IC50) result in data set [1], in data set [2], in data set [3], in data set [4], in data set [5] and in data set [6] was “Not Active” in each case. Further, the IC50 entry in data set [7] is reported as “Not Active”. The Ki entry in data set [1], in data set [2], in data set [4] and in data set [5] was “Not Active” each time.
With `CCCCC1=NC2(CCCC2)C(=O)N1Cc1ccc(-c2ccccc2-c2nnn[nH]2)cc1` [IRBESARTAN], the IC50 result in data set [1], in data set [2], in data set [3], in data set [4], in data set [5] and in data set [6] was “Not Active” each time. In addition, the IC50 result in data set [7] is reported as “Not Active”. Besides, the inhibition constant (Ki) entry in data set [1], in data set [2], in data set [4] and in data set [5] was “Not Active” throughout.
`CN1CCC(=C2c3ccccc3CC(=O)c3sccc32)CC1` [KETOTIFEN]: the IC50 result in data set [1], in data set [2], in data set [3], in data set [4], in data set [5] and in data set [6] was “Not Active” in each case. In addition, in data set [7], the IC50 entry was “Not Active”. Besides, the Ki result in data set [1], in data set [2], in data set [4] and in data set [5] was “Not Active” in each case.
`C[N+](C)(C)C[C@H](O)CC(=O)[O-]` [LEVOCARNITINE]: the IC50 entry in data set [1], in data set [2], in data set [3], in data set [4], in data set [5] and in data set [6] was “Not Active” in each case. Further, the IC50 entry in data set [7] is reported as “Not Active”. Moreover, the Ki result in data set [1], in data set [2], in data set [4] and in data set [5] was “Not Active” throughout.
On to `C[C@H]1COc2c(N3CCN(C)CC3)c(F)cc3c(=O)c(C(=O)O)cn1c23.C[C@H]1COc2c(N3CCN(C)CC3)c(F)cc3c(=O)c(C(=O)O)cn1c23.O` [LEVOFLOXACIN], for which the IC50 result in data set [1], in data set [2], in data set [3], in data set [4], in data set [5] and in data set [6] was “Not Active” in each case. For the same compound, the IC50 entry in data set [7] is “Not Active”. Further, the Ki entry in data set [1], in data set [2], in data set [4] and in data set [5] was “Not Active” in each case.
For the compound `CN1CCCC(CN2c3ccccc3Sc3ccccc32)C1` (stereo unspecified) [MEPAZINE], the IC50 result in data set [1], in data set [2], in data set [3], in data set [4], in data set [5] and in data set [6] was “Not Active” each time. Moreover, in data set [7], the IC50 entry is recorded as “Not Active”. Besides, the Ki entry in data set [1], in data set [2], in data set [4] and in data set [5] was “Not Active” in each case.
Regarding `Cc1cccc(C)c1NC(=O)C1CCCCN1C` (stereo unspecified) [MEPIVACAINE], the IC50 result in data set [1], in data set [2], in data set [3], in data set [4], in data set [5] and in data set [6] was “Not Active” in each case. Also, the IC50 result in data set [7] is recorded as “Not Active”. The inhibitory constant (Ki) result in data set [1], in data set [2], in data set [4] and in data set [5] was “Not Active” throughout.
Take `C[C@]12CC[C@H]3[C@@H](CCC4=CC(=O)CC[C@@H]43)[C@@H]1CC[C@@H]2O` [NANDROLONE]: the IC50 result in data set [1], in data set [2], in data set [3], in data set [4], in data set [5] and in data set [6] was “Not Active” in each case. Besides, the IC50 result in data set [7] is reported as “Not Active”. For the same compound, the Ki result in data set [1], in data set [2], in data set [4] and in data set [5] was “Not Active” in each case.
As to `CN(C)C(=O)Oc1cccc([N+](C)(C)C)c1.[Br-]` [NEOSTIGMINE BROMIDE], the IC50 entry in data set [1], in data set [2], in data set [3], in data set [4], in data set [5] and in data set [6] was “Not Active” each time. Further, the IC50 entry in data set [7] is listed as “Not Active”. Further, the Ki entry in data set [1], in data set [2], in data set [4] and in data set [5] was “Not Active” throughout.
With `NC(=O)c1cccnc1` [NIACINAMIDE], the IC50 entry in data set [1], in data set [2], in data set [3], in data set [4], in data set [5] and in data set [6] was “Not Active” in each case. Further, the IC50 result in data set [7] is “Not Active”. Also, the inhibitory constant (Ki) entry in data set [1], in data set [2], in data set [4] and in data set [5] was “Not Active” in each case.
Consider `CN1C(=O)CN=C(c2ccccc2)c2cc([N+](=O)[O-])ccc21` [NIMETAZEPAM], for which the concentration for half-maximal inhibition (IC50) entry in data set [1], in data set [2], in data set [3], in data set [4], in data set [5] and in data set [6] was “Not Active” throughout. The IC50 entry in data set [7] is “Not Active”. In addition, the Ki entry in data set [1], in data set [2], in data set [4] and in data set [5] was “Not Active” throughout.
`COc1ccc2c(c1OC)C(=O)O[C@@H]2[C@H]1c2c(cc3c(c2OC)OCO3)CCN1C` [NOSCAPINE]: the IC50 result in data set [1], in data set [2], in data set [3], in data set [4], in data set [5] and in data set [6] was “Not Active” each time. For the same compound, in data set [7], the IC50 result is “Not Active”. Besides, the Ki result in data set [1], in data set [2], in data set [4] and in data set [5] was “Not Active” in each case.
For `NC(=O)N1c2ccccc2CC(=O)c2ccccc21` [OXCARBAZEPINE], the IC50 entry in data set [1], in data set [2], in data set [3], in data set [4], in data set [5] and in data set [6] was “Not Active” throughout. For the same compound, in data set [7], the IC50 result is given as “Not Active”. The Ki result in data set [1], in data set [2], in data set [4] and in data set [5] was “Not Active” throughout.
For `COc1ccnc(C[S+]([O-])c2nc3ccc(OC(F)F)cc3[nH]2)c1OC` (stereo unspecified) [PANTOPRAZOLE], the IC50 result in data set [1], in data set [2], in data set [3], in data set [4], in data set [5] and in data set [6] was “Not Active” each time. Also, the IC50 result in data set [7] is listed as “Not Active”. Besides, the Ki result in data set [1], in data set [2], in data set [4] and in data set [5] was “Not Active” each time.
Take `N=C(N)c1ccc(OCCCCCOc2ccc(C(=N)N)cc2)cc1` [PENTAMIDINE]: the IC50 entry in data set [1], in data set [2], in data set [3], in data set [4], in data set [5] and in data set [6] was “Not Active” throughout. Besides, the IC50 entry in data set [7] was “Not Active”. The Ki entry in data set [1], in data set [2], in data set [4] and in data set [5] was “Not Active” in each case.
